Key:
[1] = system: NSCLC cell lines H827, H1975, H1299, A549; test: Surface HLA-ABC (MHC-I) on panel of NSCLC cell lines; type: cell-based, human; details: for surface MHC-I: cell lines that had the sensitizing mutation; for sensitivity to up-regulating surface MHC-I: cell lines with downstream activating RAS mutations
From the text: (§1) 1% DMSO was used as a vehicle control. […] Use of ESK antibody to a peptide derived from the oncoprotein WT1 that is presented on HLA-A0201. […] PRAME is a TCRm antibody against an epitope of PRAME tumor antigen presented on HLA-A0201 on SKMEL5. Experimental setup was similar to FIG. 2A. […] FIG. 2D: Use of EGFRi erlotinib and afatanib, along with MEKi trametinib on H827 (EGFR E746del-A750 mutation), H1975 (L858R/T790M), H1299 (EGFR wt, NRAS Q61K), and A549 (EGFR wt/KRAS G12S) to alter surface HLA-ABC levels. Student's t-test was done to compare each treatment to vehicle control. *P values annotated as in FIG. 1E. […] FIG. 2F: H1299 cells were transduced with retroviral vectors expressing EGFR L858R and were analyzed for surface pan HLA-ABC using W6/32. […] The NRAS Q61K mutation was introduced into H827 and cells were treated with EGFRi or MEKi as done in FIG. 2G.
(§2) Small molecule inhibitor studies: Compounds were obtained from SelleckChem (Houston, Tx. USA). Drugs were used at sub-cytostatic doses by titration using the Cell Titer Glo assay (Promega). All drugs were used in vitro at indicated doses in 1% dimethyl sulfoxide (DMSO).
The mechanism by which the MAP kinase pathway suppresses levels of HLA-A is unknown. Given that many cancers have activating mutations in specific genes in the MAP kinase pathway, inhibition of the identified hits was investigated in cell lines harboring mutations in EGFR, or downstream in Ras. A panel of NSCLC cell lines with activating mutations in EGFR, such as the delE746-A750 in H827, or L858R/T790M mutation in H1975, was utilized. The delE746-A750 confers sensitivity to erlotinib, whereas the T790M confers resistance to erlotinib and other first generation EGFR inhibitors, but is sensitive to afatanib (Cross et al., 2014, Cancer Discov 4(9):1046-61). EGFR wild type NSCLC lines with downstream mutations, such as activating NRAS Q61K in H1299 or KRAS G12S in A549, were also utilized.

H827 = details: similar level of suppression of pERK
From the text: as §1, §2

HLA-A and B2M protein = details: erlotinib (EGFRi), 72 hours
From the text: The HLA-A and B2M promoter was cloned upstream of the Gaussian Luciferase (GLuc) gene. Secreted embryonic alkaline phosphatase (SEAP) under the CMV promoter was used as a normalization factor.

JMN [2] = test: ADCC assay (51Cr release) with TCR mimic antibody ESKM after trametinib; type: cell-based, human; details: 72 hours trametinib, non-cytotoxic dose
Method: (§3) Cells were incubated for 72 hours with either vehicle control or trametinib and subsequently exposed to either isotype antibody or ESKM in ADCC assay. FIG. 3B depicts an ADCC assay on Meso34 (human mesothelioma). The experimental setup was similar to FIG. 3A. FIG. 3C depicts an ADCC assay on SKMEL5 (human melanoma) using TCRm mAb PRAME against the PRAME epitope; the experimental setup was similar to FIG. 3A. FIG. 3D: B16F10 cells were exposed to pmel-1 (gp100) specific TCR T-cells for 24 hours, then killing was assessed using a clonogenic assay described previously (Budhu et al. 2010, J Exp Med 207:223-235)
(§4) ADCC: The HLA-A*02:01 positive mesothelioma cell lines JMN and Meso34, along with the melanoma cell line SK-MELS were used in the ADCC assay as a target (May et al. 2007, Clin Cancer Res 13:4547-4555) . Antibodies ESKM (Veomett et al., 2014, Clin Cancer Res 20(15):4036-4046), PRAME, or its isotype control hIgG1 at 3 ug/ml were incubated with target cells and fresh healthy donor PBMCs at different effector/target ratios for 6 hours, along with indicated doses of vehicle or trametinib in RPMI (Roswell Park Memorial Institute medium) supplemented with 10% fetal bovine serum (FBS). The supernatant was harvested, and the cytotoxicity was measured by a ^51Cr release assay (Perkin Elmer).

Meso34 [3] = test: as above; type: cell-based, human; details: 72 hours trametinib, non-cytotoxic dose
Method: as §3, §4

SK-MEL-5 = test: ADCC assay (51Cr release) with TCR mimic mAb Pr20m (PRAME) after trametinib; type: cell-based, human
Method: as §3, §4

pERK = test: Titration of MEK inhibition by western blot for pERK and ERK; type: cell-based, human; details: JMN and Meso34 cells; time=1 hour
From the text: (§5) It was hypothesized that the inhibition of the MAP kinase pathway might act on other components of the antigen presentation machinery in addition to MHC-I molecules, thus allowing increased epitope expression in the more abundant cell surface HLA molecules.

JMN [4] = test: Time course of MEK inhibition and HLA-A / B2M protein, western blot; type: cell-based, human; details: 50 nM trametinib
Method: FIG. 11: JMN was treated with 50 nM trametinib and lysate was analyzed as in FIG. 4C at different time points.
as §5

JMN [5] = test: Cell surface HLA-A / HLA-ABC by flow cytometry (BB7, W6/32) after 72 hours; type: cell-based, human
From the text: 1% DMSO was used as a vehicle control. […] Experimental setup was similar to FIG. 2A.

PC9 = test: Cell surface HLA-A by flow cytometry (BB7) after 72 hours with inhibitor; type: cell-based, human; details: PC9, activating EGFR mutation (del E746-A750)
Meso34 [6] = test: as above; type: cell-based, human; details: Meso34 without an EGFR mutation, same dose

Compound: C#Cc1cccc(Nc2ncnc3cc(OCCOC)c(OCCOC)cc23)c1 [erlotinib]
- surface MHC-I [1]: up-regulated
- sensitivity to up-regulating surface MHC-I [1]: not observed
- surface MHC-I response compared with MEKi by trametinib (H827): responded more strongly
- HLA-A and B2M protein (HLA-A and B2M protein): dose dependent increase

Compound: CC(=O)Nc1cccc(-n2c(=O)n(C3CC3)c(=O)c3c(Nc4ccc(I)cc4F)n(C)c(=O)c(C)c32)c1 [trametinib]
- cytotoxicity of ESKM (ADCC) (JMN [2]): increased
- cytotoxicity of ESKM (ADCC) (Meso34 [3]): increased
- increased cytotoxicity of Pr20m mAb (ADCC) (SK-MEL-5): also observed
- dose to which cells were sensitive (pERK inhibition) (pERK): less than 10 nM
- time of maximal increases of HLA-A and B2M (JMN [4]): 72 h
- time of maximal inhibition of MEK (JMN [4]): 3 h

Compound: EGF: epidermal growth factor, EGF protein that turns on EGFR (NSDSECPLSHDGYCLHDGVCMYIEALDKYACNCVVGYIGERCQYRDLKWWELR; Epidermal growth factor; UniProt P01133 971-1023, looked up)
- surface HLA-A (JMN [5]; 10 nM EGF for 72 hours): suppressed
- surface HLA-A,B,C (JMN [5]; 10 nM EGF for 72 hours): suppressed

Compound: CN(C)C/C=C/C(=O)Nc1cc2c(Nc3ccc(F)c(Cl)c3)ncnc2cc1O[C@H]1CCOC1 [afatanib]
- HLA-A up-regulation response (JMN [5]; 72 hours, BB7 binding): responded
- HLA-A up-regulation response (PC9): responded
- HLA-A up-regulation response (Meso34 [6]): did not respond
- surface MHC-I [1]: up-regulated
- sensitivity to up-regulating surface MHC-I [1]: not observed

Source: patent US20190077856A1, “METHOD OF TREATING DISEASES USING KINASE MODULATORS” (Memorial Sloan Kettering Cancer Center, priority 2016, published 2019)
